Measurements from patent US6737383B1, “Herbicidal oxadiazolidines” (priority 1999, dated 2004).

Experiments:
purple nutsedge = assay: Test B pre/postemergence purple nutsedge; assay type: in vivo, Cyperus rotundus
How it was run: (§1)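 Response is a visual 0-to-10 score relative to untreated plants, where 0 means no effect and 10 means complete control, taken twelve to sixteen days after application. Treatments went onto soil at planting and onto foliage of 1- to 4-leaf plants, using a surfactant-containing non-phytotoxic solvent.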

velvetleaf = assay: Test B pre/postemergence velvetleaf; assay type: in vivo, Abutilon theophrasti
How it was run: as §1

soybean = assay: Test B pre/postemergence soybean; assay type: in vivo, Glycine max
How it was run: as §1

rice = assay: Test B flood test rice; assay type: in vivo, Oryza sativa
How it was run: (§2)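 Plants were grown to the 2-leaf stage before treatment with test chemical, then held in a greenhouse for twelve to sixteen days. Injury was visually rated against untreated controls on a 0–10 scale, where 0 is no effect and 10 is complete control.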

rape = assay: Test B pre/postemergence rape; assay type: in vivo, Brassica napus
How it was run: as §1

bamyardgrass = assay: Test B flood test barnyardgrass; assay type: in vivo, Echinochloa crus-galli; details: for Plant response rating, Barnyardgrass: scale 0 to 10, 0 is no effect, 10 is complete control; for Barnyardgrass plant response rating: scale of 0 to 10 where 0 is no effect and 10 is complete control
How it was run: as §2

wheat = assay: Test B pre/postemergence wheat; assay type: in vivo, Triticum aestivum
How it was run: as §1

pigweed = assay: Test B pre/postemergence pigweed; assay type: in vivo, Amaranthus retroflexus
How it was run: as §1

smallflower flatsedge = assay: Test B flood test smallflower flatsedge; assay type: in vivo, Cyperus difformis
How it was run: as §2

corn = assay: Test B pre/postemergence corn; assay type: in vivo, Zea mays
How it was run: as §1

blackgrass = assay: Test B pre/postemergence blackgrass; assay type: in vivo, Alopecurus myosuroides
How it was run: as §1

cocklebur = assay: Test B pre/postemergence cocklebur; assay type: in vivo, Xanthium strumarium
How it was run: as §1

surinam grass = assay: Test B pre/postemergence surinam grass; assay type: in vivo, Brachiaria decumbens
How it was run: as §1

giant foxtail = assay: Test B pre/postemergence giant foxtail; assay type: in vivo, Setaria faberii
How it was run: as §1

duck salad = assay: Test B flood test duck salad; assay type: in vivo, Heteranthera limosa; details: for Plant response rating, Ducksalad: scale 0 to 10, 0 is no effect, 10 is complete control; for Ducksalad plant response rating: scale of 0 to 10 where 0 is no effect and 10 is complete control
How it was run: as §2

morningglory = assay: Test B pre/postemergence morningglory; assay type: in vivo, Ipomoea hederacea
How it was run: as §1

sugar beet = assay: Test B pre/postemergence sugar beet; assay type: in vivo, Beta vulgaris
How it was run: as §1

wild oat = assay: Test B pre/postemergence wild oat; assay type: in vivo, Avena fatua
How it was run: as §1

crabgrass = assay: Test B pre/postemergence crabgrass; assay type: in vivo, Digitaria sanguinalis
How it was run: as §1

[1] = Postemergence, Rate 250 g/ha, scale 0 to 10, 0 is no effect, 10 is complete control
[2] = Postemergence, Rate 500 g/ha, scale of 0 to 10 where 0 is no effect and 10 is complete control
[3] = Preemergence, Rate 62 g/ha, scale 0 to 10 (0 no effect, 10 complete control)
[4] = Preemergence, Rate 125 g/ha, scale of 0 to 10 where 0 is no effect and 10 is complete control
[5] = Preemergence, Rate 250 g/ha, scale 0 to 10, 0 is no effect, 10 is complete control
[6] = Preemergence, Rate 500 g/ha, scale 0 to 10, 0 is no effect, 10 is complete control
[7] = Postemergence section (flood test species), Rate 500 g/ha, scale of 0 to 10 where 0 is no effect and 10 is complete control
[8] = flood test species, listed under Postemergence, Rate 250 g/ha, scale 0 to 10, 0 is no effect, 10 is complete control
[9] = Postemergence (flood test), Rate 125 g/ha
[10] = Postemergence section (flood test species), Rate 500 g/ha
[11] = Rate 62 g/ha, Postemergence (flood test species)
[12] = flood test species, listed under Postemergence, Rate 250 g/ha
[13] = Postemergence, Rate 125 g/ha, scale 0 to 10, 0 is no effect, 10 is complete control
[14] = Rate 62 g/ha, Postemergence, scale of 0 to 10 where 0 is no effect and 10 is complete control
[15] = Preemergence, Rate 250 g/ha, scale of 0 to 10 where 0 is no effect and 10 is complete control

Structure (SMILES): C=C(C)CCn1c(=O)on(C(=O)N(c2ccccc2)C(C)C)c1=O [Compound 418]
- Plant response rating, Nutsedge (purple nutsedge; [1]): 0
- Nutsedge plant response rating (purple nutsedge; [2]): 0
- Plant response rating, Nutsedge (purple nutsedge; [3]): 0
- Plant response rating, Nutsedge (purple nutsedge; [4]): 0
- Nutsedge plant response rating (purple nutsedge; [5]): 0
- Nutsedge plant response rating (purple nutsedge; [6]): 0
- Plant response rating, Velvetleaf (velvetleaf; [1]): 0
- Velvetleaf plant response rating (velvetleaf; [2]): 0
- Plant response rating, Velvetleaf (velvetleaf; [3]): 0
- Plant response rating, Velvetleaf (velvetleaf; [4]): 3
- Velvetleaf plant response rating (velvetleaf; [5]): 5
- Velvetleaf plant response rating (velvetleaf; [6]): 6
- Plant response rating, Soybean (soybean; [1]): 4
- Soybean plant response rating (soybean; [2]): 6
- Plant response rating, Soybean (soybean; [3]): 0
- Plant response rating, Soybean (soybean; [4]): 0
- Soybean plant response rating (soybean; [5]): 0
- Soybean plant response rating (soybean; [6]): 0
- Rice plant response rating (rice; [7]): 0
- Plant response rating, Rice (rice; [8]): 0
- Plant response rating, Rape (rape; [1]): 0
- Rape plant response rating (rape; [2]): 0
- Plant response rating, Rape (rape; [3]): 0
- Plant response rating, Rape (rape; [4]): 0
- Rape plant response rating (rape; [5]): 0
- Rape plant response rating (rape; [6]): 9
- Plant response rating, Barnyardgrass (bamyardgrass; [9]): 0
- Barnyardgrass plant response rating (bamyardgrass; [10]): 0
- Barnyardgrass plant response rating (bamyardgrass; [11]): 0
- Plant response rating, Barnyardgrass (bamyardgrass; [12]): 0
- Wheat plant response rating (wheat; [2]): 0
- Plant response rating, Wheat (wheat; [3]): 0
- Plant response rating, Wheat (wheat; [4]): 0
- Wheat plant response rating (wheat; [5]): 0
- Wheat plant response rating (wheat; [6]): 2
- Plant response rating, Redroot pigweed (pigweed; [1]): 0
- Redroot pigweed plant response rating (pigweed; [2]): 0
- Plant response rating, Redroot pigweed (pigweed; [3]): 2
- Plant response rating, Redroot pigweed (pigweed; [4]): 3
- Redroot pigweed plant response rating (pigweed; [5]): 8
- Redroot pigweed plant response rating (pigweed; [6]): 8
- S. Flatsedge plant response rating (smallflower flatsedge; [7]): 4
- Plant response rating, S. Flatsedge (smallflower flatsedge; [8]): 4
- Plant response rating, Corn (corn; [13]): 0
- Plant response rating, Corn (corn; [1]): 0
- Corn plant response rating (corn; [2]): 0
- Plant response rating, Corn (corn; [3]): 0
- Plant response rating, Corn (corn; [4]): 0
- Corn plant response rating (corn; [5]): 2
- Corn plant response rating (corn; [14]): 0
- Plant response rating, Blackgrass (blackgrass; [13]): 4
- Plant response rating, Blackgrass (blackgrass; [1]): 4
- Blackgrass plant response rating (blackgrass; [2]): 6
- Plant response rating, Blackgrass (blackgrass; [3]): 4
- Plant response rating, Blackgrass (blackgrass; [4]): 4
- Blackgrass plant response rating (blackgrass; [15]): 7
- Blackgrass plant response rating (blackgrass; [6]): 0
- Blackgrass plant response rating (blackgrass; [14]): 2
- Plant response rating, Cocklebur (cocklebur; [13]): 0
- Plant response rating, Cocklebur (cocklebur; [1]): 0
- Cocklebur plant response rating (cocklebur; [2]): 0
- Plant response rating, Cocklebur (cocklebur; [3]): 0
- Plant response rating, Cocklebur (cocklebur; [4]): 0
- Cocklebur plant response rating (cocklebur; [5]): 0
- Cocklebur plant response rating (cocklebur; [6]): 0
- Cocklebur plant response rating (cocklebur; [14]): 0
- Plant response rating, B. signalgrass (surinam grass; [13]): 0
- Plant response rating, B. signalgrass (surinam grass; [1]): 0
- B. signalgrass plant response rating (surinam grass; [2]): 2
- Plant response rating, B. signalgrass (surinam grass; [3]): 0
- Plant response rating, B. signalgrass (surinam grass; [4]): 3
- B. signalgrass plant response rating (surinam grass; [15]): 6
- B. signalgrass plant response rating (surinam grass; Preemergence, Rate 500 g/ha, scale of 0 to 10 where 0 is no effect and 10 is complete control): 6
- B. signalgrass plant response rating (surinam grass; [14]): 0
- Plant response rating, Giant foxtail (giant foxtail; [13]): 0
- Plant response rating, Giant foxtail (giant foxtail; [1]): 8
- Giant foxtail plant response rating (giant foxtail; [2]): 9
- Plant response rating, Giant foxtail (giant foxtail; [3]): 7
- Plant response rating, Giant foxtail (giant foxtail; [4]): 8
- Giant foxtail plant response rating (giant foxtail; [5]): 10
- Giant foxtail plant response rating (giant foxtail; [6]): 10
- Giant foxtail plant response rating (giant foxtail; [14]): 0
- Plant response rating, Ducksalad (duck salad; [9]): 0
- Ducksalad plant response rating (duck salad; [10]): 2
- Ducksalad plant response rating (duck salad; [11]): 0
- Plant response rating, Ducksalad (duck salad; [12]): 2
- Plant response rating, Morningglory (morningglory; [1]): 8
- Morningglory plant response rating (morningglory; [2]): 10
- Plant response rating, Morningglory (morningglory; [3]): 0
- Plant response rating, Morningglory (morningglory; [4]): 0
- Morningglory plant response rating (morningglory; [5]): 0
- Morningglory plant response rating (morningglory; [6]): 0
- Plant response rating, Sugarbeets (sugar beet; [1]): 0
- Sugarbeets plant response rating (sugar beet; [2]): 0
- Plant response rating, Sugarbeets (sugar beet; [3]): 0
- Plant response rating, Sugarbeets (sugar beet; [4]): 2
- Sugarbeets plant response rating (sugar beet; [5]): 2
- Sugarbeets plant response rating (sugar beet; [6]): 2
- Wild oats plant response rating (wild oat; [2]): 3
- Plant response rating, Wild oats (wild oat; [3]): 0
- Plant response rating, Wild oats (wild oat; [4]): 0
- Wild oats plant response rating (wild oat; [5]): 0
- Wild oats plant response rating (wild oat; [6]): 0
- Plant response rating, Crabgrass (crabgrass; [13]): 0
- Plant response rating, Crabgrass (crabgrass; [1]): 3
- Crabgrass plant response rating (crabgrass; [2]): 6
- Plant response rating, Crabgrass (crabgrass; [3]): 6
- Plant response rating, Crabgrass (crabgrass; [4]): 8
- Crabgrass plant response rating (crabgrass; [5]): 10
- Crabgrass plant response rating (crabgrass; [6]): 10
- Crabgrass plant response rating (crabgrass; [14]): 0
